Assay results: paper PMC2921628 (Biochemistry, 2010)
Where two headings read alike, the source gives them in different places. One block for each compound: values may come before it.

How the values were obtained:
[1] = biological target: T1, cdk5/p25 (Homo sapiens, UniProt Q00535); assay: Inhibition studies with substrate analogues and product ADP at 0.2 mM MgCl2; assay type: biochemical; conditions: 0.2 mM Mg^2+
[2] = biological target: T1, cdk5/p25; assay: Influence of D2O on inhibitor; assay type: biochemical; conditions: 10 µM ATP, saturating H1P; data not shown
[3] = cited from earlier work
[4] = biological target: T1, cdk5/p25; assay: Initial velocity kinetic analysis of cdk5/p25-catalyzed H1P phosphorylation; assay type: biochemical
[5] = versus variable substrate ATP (H1P fixed)
[6] = versus variable substrate H1P (ATP fixed)

T1 sequence (Q00535 whole entry, species assumed): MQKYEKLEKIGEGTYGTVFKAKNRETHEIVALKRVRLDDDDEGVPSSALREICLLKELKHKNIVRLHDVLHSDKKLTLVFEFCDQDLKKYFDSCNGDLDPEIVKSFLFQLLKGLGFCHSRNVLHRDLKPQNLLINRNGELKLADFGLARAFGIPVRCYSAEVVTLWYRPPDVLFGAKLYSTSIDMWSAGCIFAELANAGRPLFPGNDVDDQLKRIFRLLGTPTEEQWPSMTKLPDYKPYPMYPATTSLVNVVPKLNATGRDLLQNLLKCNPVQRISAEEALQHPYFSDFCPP
T1 sequence (Q15078 99-307 partner limits assumed, species assumed): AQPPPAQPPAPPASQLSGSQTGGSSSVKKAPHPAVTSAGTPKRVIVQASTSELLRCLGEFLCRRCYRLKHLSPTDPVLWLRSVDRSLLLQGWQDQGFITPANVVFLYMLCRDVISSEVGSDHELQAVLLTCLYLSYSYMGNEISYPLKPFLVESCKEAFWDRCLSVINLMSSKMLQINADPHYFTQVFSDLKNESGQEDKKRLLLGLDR

mechanism of inhibition [1, 5]: competitive
mechanism of inhibition [1, 6]: noncompetitive
Compound: Nc1ncnc2c1ncn2[C@@H]1O[C@H](COP(=O)(O)OP(=O)(O)O)[C@@H](O)[C@H]1O [ADP]

enzyme forms that inhibitor binds [1]: binds to both E and E:B complex
mechanism of inhibition [1, 5]: competitive
mechanism of inhibition [1, 6]: noncompetitive
dissociation constant from E:H1P:AMP, lowering in 85% D2O compared with water [2]: approximately 1.5 fold
Compound: Nc1ncnc2c1ncn2[C@@H]1O[C@H](COP(=O)(O)O)[C@@H](O)[C@H]1O [AMP]

Kd ([4]; KATP (KMgATP), 2.5 mM free Mg^2+): 6.1 ± 1.5 µM
Compound: Nc1ncnc2c1ncn2[C@@H]1O[C@H](COP(=O)(O)OP(=O)(O)OP(=O)(O)O)[C@@H](O)[C@H]1O [ATP, Adenosine 5’-triphosphate]
pKa for protonation of the γ-phosphate of ATP [3]: 4.6

hill coefficient ([4]; MgATP dependence of (kcat)H1P at 0.2 mM free Mg^2+ (Figure 1B)): 1.8 ± 0.1
Kd ([4]; read-out: KATP (KMgATP), 0.2 mM free Mg^2+): 60 ± 20 µM
Kd ([4]; read-out: KATP (KMgATP), 2.5 mM free Mg^2+): 6.1 ± 1.5 µM
Compound: Nc1ncnc2c1ncn2[C@@H]1O[C@H](COP(=O)(O)OP(=O)([O-])OP(=O)([O-])O)[C@@H](O)[C@H]1O.[Mg+2] [MgATP]
dissociation constant of MgATP ([3]; used to calculate MgATP and free Mg^2+ concentrations): 14.3 µM
